System: CD34^+ mPB cells
Experiment: Effect of garcinol and VPA on medium performance: 7-day expansion of CD34+ mPB cells in medium ± VPA or garcinol
Format: cell-based
Parameters: key to % CD34^+CD90^+ / Fold TNC / % CD34^+ / Fold CD34^+: (+) is baseline; (++) or greater improvement; (*) denotes no data (the cells died when garcinol was added to ACF)
Conditions: for % CD34^+CD90^+ / Fold TNC / % CD34^+ / Fold CD34^+: day 7, three donors
Protocol: In vitro expansion. Enriched CD34^+ cells from three donors of human mobilized peripheral blood (mPB, AllCells) were cultured in the following serum free media: HSC Medium (as provided herein), and the commercially available Stem Cell Growth Medium (SCGM, CellGenix GmbH), STEMSPAN™ Animal Component Free (ACF, STEMCELL Technologies), and STEMPRO™ 34 (Thermo Fisher Scientific). All media were supplemented with 100 ng/mL SCF, 100 ng/mL FLT-3L, 100 ng/mL TPO, 50 ng/mL IL-3, and 20 ng/mL IL-6 (all provided by Thermo Fisher Scientific). HSC expansion was initiated by culturing 5×10^3 CD34^+ cells/mL in a 48 well plate for 7 days in a humidified 37° C., 5% CO2 incubator. At day 7, total nucleated cell (TNC) number and % viability were assessed using a Countess II cell counter (Thermo Fisher Scientific), and cell phenotype was performed by flow cytometry.
Flow cytometry analysis. TNC were washed in phosphate-buffered saline (PBS) and incubated for 20 minutes at room temperature with LIVE/DEAD® Fixable Yellow stain in PBS. Cells were washed in flow cytometry staining buffer, and incubated with a cocktail of monoclonal antibodies against human cell surface antigens: CD34 PE-Cy7, CD90 APC, CD45RA Pacific Blue, for 30 minutes at 4° C. Cells were analyzed on a Attune NxT flow cytometer (Thermo Fisher Scientific), and FLOWJO® Software (version 7.6.5 Becton Dickinson).
Effect of small molecules to medium performance. To assess the contribution of valproic acid (VPA) and garcinol to competitor media, the small molecules were added to SCGM and STEMSPAN™ ACF either in combination or individually at the final concentration present in HSC Medium. To address whether there is a reduction in performance of HSC Medium when the small molecules were excluded from the formulation, either VPA or garcinol were removed during manufacture. CD34^+ mPB cells from three donors were cultured as described above (Example 1) in medium±VPA or garcinol, and compared with HSC medium, STEMSPAN™ ACF, SCGM or STEMSPAN™ ACF with STEMSPAN™ CD34^+ Expansion Supplement (10×). At day 7, cells were assessed for TNC, % viability, CD34^+, CD34^+CD90^+CD45RA^− cells as described above. To pool data points (CD34^+ expansion, TNC expansion) from the three donors, all conditions were normalized to SCGM media the standard error calculated. For pooling of % CD34^+ and % CD34^+CD90^+CD45RA^− data points in the three donors, the values were averaged and standard error calculated.

[1] = in HSC Medium made with the named small molecule(s) only
[2] = small molecule(s) added to SCGM
[3] = small molecule(s) added to ACF (STEMSPAN ACF)

SMILES: C=C(C)[C@@H](CC=C(C)C)C[C@@]12C[C@@H](CC=C(C)C)C(C)(C)[C@@](CC=C(C)C)(C(=O)C(C(=O)c3ccc(O)c(O)c3)=C1O)C2=O [Garcinol, garcinol]
- % CD34^+CD90^+ [1]: +
- Fold TNC [1]: +
- % CD34^+ [2]: +
- % CD34^+CD90^+ [2]: +
- Fold CD34^+ [2]: +
- Fold TNC [2]: +

SMILES: CCCC(CCC)C(=O)O [VPA, valproic acid]
- performance (HSC expansion) (added to ACF): boosted performance to HSC Medium (with garcinol and VPA) levels
- % CD34^+CD90^+CD45RA^− (added to competitor media): improved
- expansion of HSC / performance (added to competitor media (SCGM, STEMSPAN ACF)): improved expansion of HSC
- % CD34^+ [1]: ++
- Fold CD34^+ [1]: +
- Fold TNC [1]: +
- % CD34^+ [3]: ++
- % CD34^+CD90^+ [3]: ++
- % CD34^+ [2]: ++
- % CD34^+CD90^+ [2]: ++
- Fold CD34^+ [2]: ++
- Fold TNC [2]: ++

— patent US20210386787A1, “Hematopoietic Stem and Progenitor Cell Expansion System” (LIFE TECHNOLOGIES CORPORATION, priority 2018, published 2021)
